Measured values from patent publication US6355799B1, “Substituted benzene compounds, process for their preparation, and herbicidal and defoliant compositions containing them” (ISK Americas Incorporated, priority 1997, dated 2002).

What was measured:
Assay type in all cases: in vivo
[1] = test system: upland rice (Oryza sp., var. Tebonnet, RICE); assay: Pre-emerge test, crop safety; details: pre-emerge, 14 days after application, scale 0-100
Outline: (§1)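 Sandy loam pots; pre-emerge: sown 1 d pre-spray, surface-watered after, then bottom-watered. Post-emerge: sown 8–21 d before, 2–3 leaf stage, + 0.25% v/v NIS, bottom-watered. Acetone, 187 l/ha track spray, 15–1000 g ai/ha. 0–100 injury score, day 14.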

[2] = test system: field corn (Zea mays L., var. Dekalb 535, CORN); assay: Pre-emerge test, crop safety; details: pre-emerge, 14 days after application, scale 0-100
Outline: as §1

[3] = test system: upland rice (Oryza sp., var. Tebonnet, RICE); assay: Post-emerge test, crop safety; details: post-emerge, 14 days after application, rating scale 0-100
Outline: as §1

[4] = test system: field corn (Zea mays L., var. Dekalb 535, CORN); assay: Post-emerge test, crop safety; details: post-emerge, 14 days after application, rating scale 0-100
Outline: as §1

[5] = test system: sicklepod (Cassia obtusifolia, CASOB); assay: Post-emerge test, greenhouse herbicide activity screening; details: post-emerge, 14 days after application, rating scale 0-100
Description: (§2) A standard greenhouse herbicide activity screening system was used to evaluate the herbicidal efficacy and crop safety of these test compounds. Seven broadleaf weed species including redroot pigweed (Amaranthus retroflexus, AMARE, velvetleaf (Abutilon theophrasti, ABUTH), sicklepod (Cassia obtusifolia, CASOB), ivyleaf morningglory (Ipomoea hederacea, IPOHE), lambsquarters (Chenopodium album, CHEAL), common ragweed (Ambrosia artemisizfolia L., AMBEL), and cocklebur (Xanthium strumarium, XANST) were used as test species. Four grass weed species including green foxtail (Setaria viridis, SETVI), barnyardgrass (Echinochloa crus-galli, ECHCG), johnsongrass (Sorghum halepense, SORHA), and large crabgrass (Digitaria sanguinalis, DIGSA) were also used. In addition, three crop species, field corn (Zea mays L., var. Dekalb 535, CORN), soybean (Glycine max L., var. Pella 86, SOY), and is upland rice (Oryza sp., var. Tebonnet, RICE) were included.
(§3) All plants were grown in 10 cm square plastic pots which were filled with a sandy loam soil mix. For pre-emerge tests, seeds were planted one day prior to application of the test compounds. For post-emerge tests, seeds were planted 8-21 days prior to the test to allow emergence and good foliage development prior to application of the test substances. At the time of the post-emerge application, plants of all species were usually at the 2-3 leaf stage of development.
(§4) All test compounds Were dissolved in acetone and applied to the test units in a volume of 187 l /ha. Test materials were applied at rates ranging from 15 g ai/ha to 1000 g ai/ha using a track sprayer equipped with a TJ8001E even flow flat fan spray nozzle. Plants were arranged on a shelf so that the top of the canopy (post-emerge) or top of the soil surface (pre-emerge) was 40-45 cm below the nozzle. Pressurized air was used to force the test solution through the nozzle as it was mechanically advanced (via electrically driven chain drive) over the top of all test plants/pots. This application simulates a typical commercial field herbicide application.
(§5) In the post-emerge test, a commercial non-ionic surfactant was also included (0.25% v/v) to enhance wetting of the leaf surfaces of target plants. Immediately after application, test units of the pre-emerge applications were watered at the soil surface to incorporate the test materials. Subsequently, these test units were bottom-watered. Post-emerge test units were always bottom-watered.
(§6) At 14 days after application of the test materials, phytotoxicity ratings were recorded. A rating scale of 0-100 was used as previously described in Research Methods in Weed Science, 2nd edition, B. Truelove, Ed., Southern Weed Science Society, Auburn University, Auburn, Ala. 1977. Briefly, “0” corresponds to no damage and “100” corresponds to complete death of all plants in the test unit. This scale was used both to determine efficacy against weed species and damage to crop species. Herbicide activity data for various compounds of this invention, which are shown by compound No. in Tables 1-8, are shown in Tables 11 and 12.

[6] = test system: large crabgrass (Digitaria sanguinalis, DIGSA); assay: as above; details: post-emerge, 14 days after application, rating scale 0-100
Description: as §2, §3, §4, §5, §6

[7] = test system: barnyardgrass (Echinochloa crus-galli, ECHCG); assay: as above; details: post-emerge, 14 days after application, rating scale 0-100
Description: as §2, §3, §4, §5, §6

[8] = test system: velvetleaf (Abutilon theophrasti, ABUTH); assay: as above; details: post-emerge, 14 days after application, rating scale 0-100
Description: as §2, §3, §4, §5, §6

[9] = test system: lambsquarters (Chenopodium album, CHEAL); assay: as above; details: post-emerge, 14 days after application, rating scale 0-100
Description: as §2, §3, §4, §5, §6

[10] = test system: green foxtail (Setaria viridis, SETVI); assay: as above; details: post-emerge, 14 days after application, rating scale 0-100
Description: as §2, §3, §4, §5, §6

[11] = test system: redroot pigweed (Amaranthus retroflexus, AMARE); assay: as above; details: post-emerge, 14 days after application, rating scale 0-100
Description: as §2, §3, §4, §5, §6

[12] = test system: ivyleaf morningglory (Ipomoea hederacea, IPOHE); assay: as above; details: post-emerge, 14 days after application, rating scale 0-100
Description: as §2, §3, §4, §5, §6

[13] = test system: sicklepod (Cassia obtusifolia, CASOB); assay: Pre-emerge test, greenhouse herbicide activity screening; details: pre-emerge, 14 days after application, scale 0-100
Description: as §2, §3, §4, §5, §6

[14] = test system: large crabgrass (Digitaria sanguinalis, DIGSA); assay: as above; details: pre-emerge, 14 days after application, scale 0-100
Description: as §2, §3, §4, §5, §6

[15] = test system: barnyardgrass (Echinochloa crus-galli, ECHCG); assay: as above; details: pre-emerge, 14 days after application, scale 0-100
Description: as §2, §3, §4, §5, §6

[16] = test system: velvetleaf (Abutilon theophrasti, ABUTH); assay: as above; details: pre-emerge, 14 days after application, scale 0-100
Description: as §2, §3, §4, §5, §6

[17] = test system: lambsquarters (Chenopodium album, CHEAL); assay: as above; details: pre-emerge, 14 days after application, scale 0-100
Description: as §2, §3, §4, §5, §6

[18] = test system: green foxtail (Setaria viridis, SETVI); assay: as above; details: pre-emerge, 14 days after application, scale 0-100
Description: as §2, §3, §4, §5, §6

[19] = test system: ivyleaf morningglory (Ipomoea hederacea, IPOHE); assay: as above; details: pre-emerge, 14 days after application, scale 0-100
Description: as §2, §3, §4, §5, §6

[20] = test system: redroot pigweed (Amaranthus retroflexus, AMARE); assay: as above; details: pre-emerge, 14 days after application, scale 0-100
Outline: as §1

COc1c(C#N)cc(F)c(-n2c(=O)cc(C(F)(F)F)n(C)c2=O)c1NC(=O)c1ccc2ccccc2c1 [2-180]
10: phytotoxicity rating ECHCG ([15]; 63 g ai/ha)
30: phytotoxicity rating SETVI ([18]; 63 g ai/ha)
0: phytotoxicity rating CORN (crop damage) ([2]; 63 g ai/ha)
80: phytotoxicity rating ECHCG ([15]; 250 g ai/ha)
60: ECHCG phytotoxicity rating ([7]; 250 g ai/ha) | SETVI phytotoxicity rating ([10]; 63 g ai/ha) | phytotoxicity rating IPOHE ([19]; 63 g ai/ha)
20: RICE phytotoxicity rating (crop damage) ([3]; 63 g ai/ha) | CORN phytotoxicity rating (crop damage) ([4]; 250 g ai/ha) | phytotoxicity rating DIGSA ([14]; 63 g ai/ha)
5: phytotoxicity rating CORN (crop damage) ([2]; 250 g ai/ha) | CORN phytotoxicity rating (crop damage) ([4]; 63 g ai/ha)
65: RICE phytotoxicity rating (crop damage) ([3]; 250 g ai/ha)
50: phytotoxicity rating CASOB ([13]; 250 g ai/ha)
70: phytotoxicity rating RICE (crop damage) ([1]; 250 g ai/ha) | SETVI phytotoxicity rating ([10]; 250 g ai/ha)
90: phytotoxicity rating DIGSA ([14]; 250 g ai/ha) | phytotoxicity rating SETVI ([18]; 250 g ai/ha)
40: phytotoxicity rating RICE (crop damage) ([1]; 63 g ai/ha) | DIGSA phytotoxicity rating ([6]; 63 g ai/ha) | DIGSA phytotoxicity rating ([6]; 250 g ai/ha) | ECHCG phytotoxicity rating ([7]; 63 g ai/ha) | phytotoxicity rating CASOB ([13]; 63 g ai/ha)
100: CASOB phytotoxicity rating ([5]; 63 g ai/ha) | CASOB phytotoxicity rating ([5]; 250 g ai/ha) | ABUTH phytotoxicity rating ([8]; 63 g ai/ha) | ABUTH phytotoxicity rating ([8]; 250 g ai/ha) | CHEAL phytotoxicity rating ([9]; 63 g ai/ha) | CHEAL phytotoxicity rating ([9]; 250 g ai/ha) | AMARE phytotoxicity rating ([11]; 63 g ai/ha) | AMARE phytotoxicity rating ([11]; 250 g ai/ha) | IPOHE phytotoxicity rating ([12]; 63 g ai/ha) | IPOHE phytotoxicity rating ([12]; 250 g ai/ha) | phytotoxicity rating ABUTH ([16]; 63 g ai/ha) | phytotoxicity rating ABUTH ([16]; 250 g ai/ha) | phytotoxicity rating CHEAL ([17]; 63 g ai/ha) | phytotoxicity rating CHEAL ([17]; 250 g ai/ha) | phytotoxicity rating IPOHE ([19]; 250 g ai/ha) | phytotoxicity rating AMARE ([20]; 63 g ai/ha) | phytotoxicity rating AMARE ([20]; 250 g ai/ha)
